Values after ≈ are worked out from the molar mass of the structure shown. Read-outs that look alike come from different tables or passages of the source.
What was measured:
in vivo = conditions: both sexes, Sprague Dawley, rat, po
Protocol: (§1) Repeated dose 90 day Oral toxicity study for 3HPT in Sprague Dawley rats: The study was conducted to evaluate the possible health hazards likely to arise from repeated exposure to 3HPT over a relatively limited period of time. The study was conducted in six groups consisting of 120 rats with 60 males and 60 females. Group-I, I (R), II, III, IV and IV (R) served as Control, Control Recovery, Low dose (20 mg/kg Bwt), Mid dose (80 mg/kg Bwt), High dose (200 mg/kg Bwt) and High dose Recovery (200 mg/kg Bwt) groups respectively. The test item or vehicle was administered through oral route by gavage to animals daily for 90 days. The animals of Control group and Control recovery group were administered with Corn oil. The vehicle and test item administration to Control Recovery and High dose Recovery group animals respectively was stopped after 90 days of administration and observed for another 28 days to evaluate the effects during recovery period. […] Body weights and food consumptions were recorded at weekly intervals. On completion of 90 days for treatment groups or 118 days for recovery groups respectively, the blood samples were collected from all the animals and subjected to haematological and clinical chemistry evaluation. At termination the animals were humanely sacrificed and subjected to necropsy examination. […]

Sprague Dawley rats = experiment: in vivo; conditions: rat, po
Protocol: as §1

tyrosinase = experiment: Anti tyrosinase activity; format: biochemical
[1] = Pharmacokinetics in serum and urine upon oral administration; format: in vivo, rats; conditions: rat, in vivo, po, 100 mg/kg
Protocol: The compound in its free and conjugated form is freely absorbed into systemic circulation with the glucoronide detected up to 72 hours.
(FIG. 4). The compound in its free and conjugated form appears in systemic circulation within 15 minutes of administration.

[2] = tested on: B16F1 mouse melanoma cell line; experiment: Melanin inhibitory assay; format: cell-based; conditions: B16-F1
α-glucosidase = experiment: Anti α-glucosidase activity; format: biochemical
[3] = tested on: Propionibacterium acnes ATCC 11827; experiment: Broth dilution method, inhibitory concentration (IC50, IC100); format: cell-based; conditions: for inhibition at 16.6 µg/mL / inhibition at 41.6 µg/mL / inhibition at 83.3 µg/mL / inhibition at 166 µg/mL / inhibition at 332 µg/mL / IC50 / inhibition at 498 µg/mL: Cutibacterium acnes, ATCC11827
Text: Method: Broth dilution method to evaluate the inhibitory concentration (IC).
Materials • 1. Propionibacterium acnes ATCC: 11827 • 2. Physiological saline or Buffered peptone water (BPW). • 3. Reinforced clostridium medium (RCM) Hi-media • 4. Actinomyces broth (AC broth) Hi-media • 5. Anaerobic chamber. • 6. Gassing manifold Nitrogen, mixed gases. • 7. Spectrophotometer (600 nm to 625 nm). • 8. Sterile tubes • 9. Micro Pipette • 10. Sterile micro tips. • 11. (DMSO) dimethylsulphoxide
The strain Propionibacterium acnes (ATCC 11827) was obtained from ATCC. The inhibitory concentration (IC) of the given sample was determined by broth dilution method according to NCCLS guidelines. The IC50 was defined as that concentration of compound that reduced bacterial growth by 50% as determined spectrophotometrically. IC100 was defined as the lowest concentration of compound that inhibited bacterial growth by 100%. Resveratrol and 3-Hydroxypsterostilbene are water insoluble. Therefore samples were dissolved in DMSO and than added to Actinomyces broth to a final concentration of 0-500 mg/L. Twenty-four hour cultures of P.acnes were adjusted to 1×10^8 cfu/ml using McFarland standards and inoculated to Actinomycetes broth containing a specific concentration of compound. Controls containing just DMSO were also included in the test. Cultures were incubated anaerobically at 37° C. and read spectrophotometrically at 600 nm both at 24 h and 48 h incubation periods. IC50 and IC100 values were calculated from these observations.

collagenase = experiment: Anti collagenase assay; format: biochemical
Elastase = experiment: Anti Elastase assay; format: biochemical
[4] = tested on: Bacterial reverse mutation; experiment: Bacterial reverse mutation assay (AMES); format: cell-based; conditions: presence and absence of metabolic activation, upto 415 μg/ml
Protocol: 3-hydroxypterostilbene is non mutagenic in the Bacterial reverse mutation assay (AMES), both in the presence and absence of metabolic activation, upto a workable concentration of 415 μg/ml.

[5] = Oxygen Radical Absorbance Capacity (ORAC)
[6] = 16.6 mg/L, 24 h, IC n = n % inhibition of bacterial growth
[7] = 16.6 mg/L, 48 h, IC n = n % inhibition of growth
[8] = 41.6 mg/L, 24 h, IC n = n % inhibition of growth
[9] = 41.6 mg/L, 48 h, IC n = n % inhibition of growth
[10] = 83.3 mg/L, 24 h, IC n = n % inhibition of growth
[11] = 83.3 mg/L, 48 h, IC n = n % inhibition of growth
[12] = 166 mg/L, 24 h, IC n = n % inhibition of growth
[13] = 166 mg/L, 48 h, IC n = n % inhibition of growth
[14] = 332 mg/L, 24 h, IC n = n % inhibition of growth
[15] = 332 mg/L, 48 h, IC n = n % inhibition of growth
[16] = P. acnes ATCC 11827, 24 h, read-out: IC50 24 h
[17] = P. acnes ATCC 11827, 48 h, read-out: IC50 48 h

Compound | OD @ 600 nm 24 h ([3]; 16.6 mg/L, 24 h, dilution 1:2) | OD @ 600 nm 48 h ([3]; 16.6 mg/L, 48 h, dilution 1:2) | OD @ 600 nm 24 h ([3]; 41.6 mg/L, 24 h, dilution 1:2) | OD @ 600 nm 48 h ([3]; 41.6 mg/L, 48 h, dilution 1:2) | Concentration showing 100% inhibition of Propionibacterium acnes ([3]; 24 hours of incubation) | Concentration showing 100% inhibition of Propionibacterium acnes ([3]; 48 hours of incubation) | inhibition at 41.6 µg/mL [3, 8] | inhibition at 41.6 µg/mL [3, 9] | inhibition at 83.3 µg/mL [3, 10] | inhibition at 83.3 µg/mL [3, 11] | inhibition at 166 µg/mL [3, 12] | inhibition at 166 µg/mL [3, 13] | inhibition at 332 µg/mL [3, 14] | inhibition at 332 µg/mL [3, 15] | IC50 [3, 16] | IC50 [3, 17] | IC100 24 h ([3]; P. acnes ATCC 11827, 24 h) | IC100 48 h ([3]; P. acnes ATCC 11827, 48 h) | also measured
COc1cc(/C=C/c2ccc(O)c(O)c2)cc(OC)c1 [3-hydroxypterostilbene] | 0.526 | 0.443 | 0.352 | 0.338 | 83.3 mg/mL | 83 mg/mL | 62% | 62% | 98% | 98% | 100% | 100% | 100% | 100% | 33.5 µg/mL (≈ 123 µM) | 35.8 µg/mL (≈ 131 µM) | 83.3 mg/L | 83.0 mg/L | NOAEL at 90 days (in vivo): 200 mg/kg; Necropsy and histopathology examination of tissues and organs (Sprague Dawley rats): did not reveal any pathological changes; SC50, DPPH scavenging (DPPH scavenging assay): SC50 is 1.34 μg/ml; IC50, anti tyrosinase activity (tyrosinase): IC50 is 2 μg/ml; Oral bioavailability (free form and glucoronide) [1]: orally bioavailable; Time to appearance in systemic circulation (free and conjugated form) [1]: ≤ 15 min; Urinary excretion form [1]: excreted predominantly as glucoronides in the urine; IC50 [2]: 0.7 µg/mL (≈ 2.57 µM); IC50, anti α-glucosidase (α-glucosidase): IC50 is 203.7 μg/ml; OD @ 600 nm 24 h ([3]; 83.3 mg/L, 24 h, dilution As such): 0.047; OD @ 600 nm 48 h ([3]; 83.3 mg/L, 48 h, dilution As such): 0.073; inhibition at 16.6 µg/mL [3, 6]: 45%; inhibition at 16.6 µg/mL [3, 7]: 45%; IC50, anti collagenase (collagenase): IC50 is 90 μg/ml; IC50, anti Elastase (Elastase): IC50 is 82 μg/ml; Mutagenicity [4]: non mutagenic; Oxygen Radical Absorbance Capacity (ORAC) [5]: 13334 ± 323 μmol TE/100 g
Oc1ccc(/C=C/c2cc(O)cc(O)c2)cc1 [Resveratrol, 3,4′,5-trihydroxy-trans-stilbene] | 1.027 | 0.884 | 0.777 | 0.593 | 332 mg/mL | 498 mg/mL | 17% | 27% | 55% | 30% | 75% | 68% | 100% | 85% | 83 µg/mL (≈ 364 µM) | 120 µg/mL (≈ 526 µM) | 332.0 mg/L | 498 mg/L | (IC) Inhibitory concentration [3, 6]: No inhibition; (IC) Inhibitory concentration [3, 7]: No inhibition; OD @ 600 nm 24 h ([3]; 83.3 mg/L, 24 h, dilution 1:2): 0.423; OD @ 600 nm 48 h ([3]; 83.3 mg/L, 48 h, dilution 1:2): 0.573; OD @ 600 nm 24 h ([3]; 166 mg/L, 24 h, dilution 1:2): 0.232; OD @ 600 nm 48 h ([3]; 166 mg/L, 48 h, dilution 1:2): 0.268; OD @ 600 nm 24 h ([3]; 332 mg/L, 24 h, dilution As such): 0.00; OD @ 600 nm 48 h ([3]; 332 mg/L, 48 h, dilution As such): 0.11; OD @ 600 nm 48 h ([3]; 498 mg/L, 48 h, dilution As such): 0.00; inhibition at 498 µg/mL ([3]; 498 mg/L, 24 h, IC n = n % inhibition of growth): 100%; inhibition at 498 µg/mL ([3]; 498 mg/L, 48 h, IC n = n % inhibition of growth): 100%
